Experimental data reported in article PMC11568265, “Exploring peptide dendrimers for intestinal lymphatic targeting: formulation and evaluation of peptide dendrimer conjugated liposomes for enhancing the oral bioavailability of Asenapine maleate” (Scientific Reports, 2024).
Structures can show the parent of a compound that is named as a salt. Marks after values point to notes of the source that are not given here.

Legend:
[1] = parameters: method as in PMID 30669881; conditions: pure ASPM dispersion, intestinal fluid (phosphate buffer pH 6.8), within 180 min; cited from earlier work
[2] = Ex vivo drug permeation, everted ileum sac model; type: in vitro ADME, Sprague–Dawley (SD) rats; conditions: male, Sprague-Dawley, pH 7.4, everted rat ileum sac
Procedure: (§1) Preclinical ex vivo and in vivo studies were conducted on male Sprague–Dawley (SD) rats (200–250 g). The SD rats were bred at the Central Animal Research Facility, Manipal Academy of Higher Education, Manipal, India. The SD rats were exposed to a light–dark cycle (12 h each) and had free access to food and water. The rats used in the study were housed in cages at 25 ± 2 °C. All the experimental procedures and animal handling were carried out following the CCSEA (Committee for Control and Supervision of Experiments on Animals, Ministry of Fisheries, Animal Husbandry and Dairying, Government of India) guidelines, and in accordance with ARRIVE guidelines as well. All the animal experimental protocols were approved by the Institutional Animal Ethical Committee, Kasturba Medical College, MAHE, Manipal (Approval No: IAEC/KMC/49/2020). An attempt was made to use the minimum number of rats in an ethically responsible manner.
The absorption of the drug through the ileum portion of the small intestine was determined by an ex vivo drug permeation study using an everted ileum sac model. Overnight-fasted SD rats were sacrificed humanely, and the small intestine was isolated (≈ 10 cm). The isolated ileum segment was carefully everted and pushed completely over a capillary tube. The ileum was then tied between the cannulated parts of the U-shaped glass tube, which was used as a perfusion apparatus. The perfusion apparatus was then placed in a beaker containing 450 mL of Ringer’s solution (pH 7.4). The medium was stirred using magnetic beads at 100 rpm and 37 °C. Plain ASPM solution/liposomal dispersion was added to the beaker. The samples were withdrawn from the cannulated arm of the U tube at predetermined time points of 1, 2 and 3 h, and the same volume of the withdrawn sample was replaced by the addition of fresh Ringer’s solution. The amount of drug absorbed was calculated by analysing the samples using HPLC[22].

[3] = tested on: L-DOPA-carbidopa-induced hyper locomotor activity; experiment: Psychostimulant-induced hyperactivity model, locomotor activity (LMA) test; type: in vivo, Sprague–Dawley (SD) rats; conditions: L-DOPA-carbidopa-treated rats, ASPM dose 5 mg/kg p.o.
Procedure: as §1
The pharmacodynamic study was performed using an induced locomotor activity (LMA) test with a psychostimulant-induced hyperactivity model. The ability of the optimized formulation to reverse hyperactivity in rats was studied. […] A digital Actophotometer (Ikon Instruments, New Delhi, India) was used to assess LMA at 5 min intervals at 1, 2 and 3 h. The LMA was assessed after 1 h of L-DOPA-carbidopa administration in group II. ASPM was administered after 30 min of L-DOPA-carbidopa administration, and LMA was noted after 30 min of ASPM administration in groups III, IV and V.

[4] = Oral pharmacokinetic study in rats; type: in vivo, Sprague–Dawley (SD) rats; conditions: SD rats, 5 mg/kg ASPM orally, n = 6
Procedure: as §1
Overnight-fasted SD rats were divided into 3 groups (n = 6). Group I, ASPM solution; Group II, LP-ASPM; Group III, LP-PD-2. All the groups received ASPM at a dose of 5 mg/kg body weight orally. Blood was drawn from the retro-orbital sinus at different time points between 0 and 48 h in tubes containing disodium EDTA. Blood was centrifuged at 5000 rpm for 10 min, and the clear plasma from the supernatant layer was collected and stored at -80 °C until analysis. The amount of ASPM in the samples was analysed by RP-HPLC. The detailed bioanalytical method development for the quantification of ASPM in rat plasma is given in Supplementary information; Section S3; Table S4; Figure S7. Pharmacokinetic parameters were calculated using PK Solutions 2.0™ (Summit Research Services, Montrose, Colorado).

Caco-2 cells = tested on: Caco-2 cells; parameters: method as in PMID 30874464, PMID 32228915, doi:10.1016/j.jddst.2022.103275; conditions: highest concentration of ASPM tested; cited from earlier work
Raji B cells = tested on: Raji B cells; parameters: method as in PMID 30874464, PMID 32228915, doi:10.1016/j.jddst.2022.103275; conditions: highest concentration of ASPM tested; cited from earlier work
[5] = cited from earlier work
[6] = male, Sprague-Dawley, rat, plasma, po

Q: Which results are given for CN1CC2c3ccccc3Oc3ccc(Cl)cc3C2C1 (stereo not shown) [ASPM, Asenapine maleate]?
A: drug release [1]: more than 90%; Papp at 1 h ([2]; 1 h): 2910 ± 260 nm/s; Papp at 2 h ([2]; 2 h): 2310 ± 310 nm/s; Papp at 3 h ([2]; 3 h): 2060 ± 300 nm/s; Locomotor counts ([3]; 1 h): 121 ± 17*^$; Locomotor counts ([3]; 2 h): 118 ± 18*^$; Locomotor counts ([3]; 3 h): 110 ± 15*^$; t1/2 ([4]; 5 mg/kg): 25.52 ± 2.15 h; half-life ([4]; male, Sprague-Dawley, rat, plasma, po, 5 mg/kg): 25.2 ± 2.15 h; AUC(0-inf) [4, 6]: 3.64 ± 0.347 µg·h/mL; AUC(0-t) [4, 6]: 2.66 ± 0.221 µg·h/mL; Cmax [4, 6]: 0.131 ± 0.00701 µg/mL; MRT [4, 6]: 36 ± 3.16 h; Tmax [4, 6]: 1 h; k el [4, 6]: 7.53e-06 s⁻¹; cells remaining viable (Caco-2 cells): more than 80%; cells remaining viable (Raji B cells): more than 80%; bioavailability ([5]; marketed fast-dissolving sublingual tablet, ref 7 (printed at next sentence)): 35%; oral bioavailability ([5]; oral administration): < 2%
